Experimental data from ChEMBL document CHEMBL1144359, “Synthesis and antitumor activity of the hexacyclic camptothecin derivatives” (Bioorg Med Chem Lett, 2005).

Legend:
[1] = In-vitro inhibitory concentration for human tumor HCT116 cell-line was determined using MTT assay after 3 days of incubation; assay type: functional, cell-based; conditions: HCT-116, 72 h
[2] = In-vitro inhibitory concentration for human tumor HELA cell-line was determined using MTT assay after 3 days of incubation; assay type: functional, cell-based; conditions: 72 h
HL-60 = assay: In-vitro inhibitory concentration for human tumor HL60 cell-line was determined using […] assay after 3 days of incubation; assay type: functional, cell-based; conditions: HL-60, 72 h
Bel-7402 = assay: In-vitro inhibitory concentration for human tumor BEL-7402 cell-line was determined using MTT assay after 3 days of incubation; assay type: functional, cell-based; conditions: Bel-7402, 72 h
[3] = Lethal toxicity in mouse with tumor sarcoma-180 after intraperitoneal (i.p.) injection at a dose of 0.5 mg/Kg of total 8 tested; conditions: in vivo, ip
[4] = Lethal toxicity in mouse with tumor sarcoma-180 after intraperitoneal (i.p.) injection at a dose of 1.0 mg/Kg of total 8 tested; conditions: in vivo, ip
Mus musculus [5] = assay: Percent body weight change in mouse with tumor sarcoma-180 after intraperitoneal (i.p.) injection at a dose of 1 mg/Kg; assay type: functional
Mus musculus [6] = assay: Average tumor weight in mouse with tumor sarcoma-180 after intraperitoneal (i.p.) injection at a dose of 1 mg/Kg; assay type: functional
Mus musculus [7] = assay: Average tumor weight in mouse with tumor sarcoma-180 after intraperitoneal (i.p.) injection at a dose of 0.5 mg/Kg; assay type: functional
Mus musculus [8] = assay: Percent body weight change in mouse with tumor sarcoma-180 after intraperitoneal (i.p.) injection at a dose of 0.5 mg/Kg; assay type: functional
Mus musculus [9] = assay: Percent tumor-weight inhibition in mouse with tumor sarcoma-180 after intraperitoneal (i.p.) injection at a dose of 1 mg/Kg; assay type: functional
Mus musculus [10] = assay: Percent tumor-weight inhibition in mouse with tumor sarcoma-180 after intraperitoneal (i.p.) injection at a dose of 0.5 mg/Kg; assay type: functional
[11] = Lethal toxicity in mouse with tumor sarcoma-180 after intraperitoneal (i.p.) injection at a dose of 2.5 mg/Kg of total 8 tested; conditions: in vivo, ip
[12] = Lethal toxicity in mouse with tumor sarcoma-180 after intraperitoneal (i.p.) injection at a dose of 5.0 mg/Kg of total 8 tested; conditions: in vivo, ip
Mus musculus [13] = assay: Percent body weight change in mouse with tumor sarcoma-180 after intraperitoneal (i.p.) injection at a dose of 5 mg/Kg; assay type: functional
Mus musculus [14] = assay: Average tumor weight in mouse with tumor sarcoma-180 after intraperitoneal (i.p.) injection at a dose of 5 mg/Kg; assay type: functional
Mus musculus [15] = assay: Average tumor weight in mouse with tumor sarcoma-180 after intraperitoneal (i.p.) injection at a dose of 2.5 mg/Kg; assay type: functional
Mus musculus [16] = assay: Percent tumor-weight inhibition in mouse with tumor sarcoma-180 after intraperitoneal (i.p.) injection at a dose of 5 mg/Kg; assay type: functional
Mus musculus [17] = assay: Percent tumor-weight inhibition in mouse with tumor sarcoma-180 after intraperitoneal (i.p.) injection at a dose of 2.5 mg/Kg; assay type: functional
Mus musculus [18] = assay: Percent body weight change in mouse with tumor sarcoma-180 after intraperitoneal (i.p.) injection at a dose of 2.5 mg/Kg; assay type: functional
[19] = Lethal toxicity in mouse with tumor sarcoma-180 after intraperitoneal (i.p.) injection at a dose of 75 mg/Kg of total 10 tested; conditions: in vivo, ip
Mus musculus [20] = assay: Average tumor weight in mouse with tumor sarcoma-180 after intraperitoneal (i.p.) injection at a dose of 75 mg/Kg; assay type: functional
Mus musculus [21] = assay: Percent body weight change in mouse with tumor sarcoma-180 after intraperitoneal (i.p.) injection at a dose of 75 mg/Kg; assay type: functional
Mus musculus [22] = assay: Percent tumor-weight inhibition in mouse with tumor sarcoma-180 after intraperitoneal (i.p.) injection at a dose of 75 mg/Kg; assay type: functional
[23] = Lethal toxicity in mouse with tumor sarcoma-180 after intraperitoneal (i.p.) injection at a dose of 40 mg/Kg of total 8 tested; conditions: in vivo, ip
Mus musculus [24] = assay: Average tumor weight in mouse with tumor sarcoma-180 after intraperitoneal (i.p.) injection at a dose of 40 mg/Kg; assay type: functional
Mus musculus [25] = assay: Percent body weight change in mouse with tumor sarcoma-180 after intraperitoneal (i.p.) injection at a dose of 40 mg/Kg; assay type: functional
Mus musculus [26] = assay: Percent tumor-weight inhibition in mouse with tumor sarcoma-180 after intraperitoneal (i.p.) injection at a dose of 40 mg/Kg; assay type: functional

SMILES | IC50 [1] | IC50 [2] | IC50 (HL-60) | IC50 (Bel-7402) | also measured
CCc1c2c(nc3ccc4c(c13)CC(CO)O4)-c1cc3c(c(=O)n1C2)COC(=O)[C@]3(O)CC (some centres not stated) | 3.8 nM | 23 nM | 7.1 nM | 7.8 nM | 
CC[C@@]1(O)C(=O)OCc2c1cc1n(c2=O)Cc2cc3c(ccc4occc43)nc2-1 | 1.6 nM | 15 nM | 3 nM | 1.6 nM | No. of mice dead [3]: 0; No. of mice dead [4]: 0; BWC (Mus musculus [5]): -34%; TW (Mus musculus [6]): 0.03; TW (Mus musculus [7]): 0.23; BWC (Mus musculus [8]): 26%; TWI (Mus musculus [9]): 98%; TWI (Mus musculus [10]): 85%
CCc1c2c(nc3ccc4c(c13)CC(C)O4)-c1cc3c(c(=O)n1C2)COC(=O)[C@]3(O)CC (some centres not stated) | 2.6 nM | 19 nM | 4.9 nM | 7.5 nM | 
CCc1c2c(nc3ccc4occc4c13)-c1cc3c(c(=O)n1C2)COC(=O)[C@]3(O)CC | 1.7 nM | 2.3 nM | 0.28 nM | 2.6 nM | 
CC[C@@]1(O)C(=O)OCc2c1cc1n(c2=O)Cc2cc3c4c(ccc3nc2-1)OC(O)C4 (some centres not stated) | 3.2 nM |  | 8.4 nM | 2.6 nM | No. of mice dead [11]: 0; No. of mice dead [12]: 0; BWC (Mus musculus [13]): -31%; TW (Mus musculus [14]): 0.05; TW (Mus musculus [15]): 0.45; TWI (Mus musculus [16]): 97%; TWI (Mus musculus [17]): 70%; BWC (Mus musculus [18]): 5%
CCc1c2c(nc3ccc4c(c13)CC(O)O4)-c1cc3c(c(=O)n1C2)COC(=O)[C@]3(O)CC (some centres not stated) | 1.4 nM | 20 nM | 4.2 nM | 4.4 nM | 
CC[C@@]1(O)C(=O)OCc2c1cc1n(c2=O)Cc2cc3c4c(ccc3nc2-1)OC(COC(C)=O)C4 (some centres not stated) | 4.3 nM | 11 nM | 11 nM | 15 nM | 
CCc1c2c(nc3ccc4c(c13)CC(COC(C)=O)O4)-c1cc3c(c(=O)n1C2)COC(=O)[C@]3(O)CC (some centres not stated) | 0.52 nM | 14 nM | 9.1 nM | 11 nM | 
CC[C@@]1(O)C(=O)OCc2c1cc1n(c2=O)Cc2cc3c4c(ccc3nc2-1)OC(CO)C4 (some centres not stated) | 2.6 nM | 25 nM | 8.7 nM | 19 nM | 
CC[C@@]1(O)C(=O)OCc2c1cc1n(c2=O)Cc2cc3c4c(ccc3nc2-1)OC(C)C4 (some centres not stated) | 4.9 nM | 10 nM | 3.1 nM | 7.4 nM | 
CCc1c2c(nc3ccc(O)cc13)-c1cc3c(c(=O)n1C2)COC(=O)[C@]3(O)CC [7-ETHYL-10-HYDROXYCAMPTOTHECIN] | 3.3 nM | 22 nM | 19 nM | 13 nM | 
O=c1[nH]cc(F)c(=O)[nH]1 [FLUOROURACIL] |  |  |  |  | No. of mice dead [19]: 0; TW (Mus musculus [20]): 0.22; BWC (Mus musculus [21]): 31%; TWI (Mus musculus [22]): 86%
CCc1c2c(nc3ccc(OC(=O)N4CCC(N5CCCCC5)CC4)cc13)-c1cc3c(c(=O)n1C2)COC(=O)[C@]3(O)CC [IRINOTECAN] |  |  |  |  | No. of mice dead [23]: 0; TW (Mus musculus [24]): 0.01; BWC (Mus musculus [25]): -28%; TWI (Mus musculus [26]): 99.4%
